Data on one molecule can be found in PMC6263107 (Journal of Enzyme Inhibition and Medicinal Chemistry, 2018).

Values joined by “and” are separate entries in the source; they are usually repeats but may differ in a detail not shown here. Equal values may be shown once.

For experiment [1], the system named is SH-SY5Y cells. The experiment can be described thus: Neuroprotection against oligomycin/rotenone-induced cell death (MTT). The following applies: compound 1 µM; O 10 µM / R 30 µM. In kind it is cell-based, human.
Experiment [2] relates to SH-SY5Y cells. The experiment can be described thus: Neuroprotection against Aβ1–40 peptide-induced cell death (MTT). In kind it is cell-based, human. As to conditions: compound 3 µM; Aβ 1–40 30 µM. The protocol:
(§1) SH-SY5Y cell culture and treatment with compounds 2b–d and 2f. The cultures of human SH-SY5Y neuroblastoma cells kept under a CO2/air (5%/95%) humidified atmosphere at 37 °C for 24 h were treated with 100 µl of the test compounds or DMSO (0.1%) in DMEM/F12 (1:1) medium supplemented with 1% fetal bovine serum, 1X non-essential amino acids, 100 units/ml penicillin and 10 mg/ml streptomycin. Treatment medium was renewed every day for up to 48 h of treatment. MTT assay was then performed.
(§2) SH-SY5Y cells were seeded in 96-well culture plates at a density of 8 × 10^4 cells per well in DMEM/F12 (1:1) medium supplemented with 10% fetal bovine serum, 1X non-essential amino acids, 100 units/mL penicillin and 10 mg/mL streptomycin (Dutscher, France). After 24 h of incubation, the cultures were treated with 100 µl of the test compounds or DMSO (0.1%) in the same medium. Following 24 h, the cells were co-incubated with oligomycin A (10 µM)/rotenone (30 µM) (Sigma, France) or Aβ 1–40 (30 µM) with or without the tested compounds 2b–d and 2f at nontoxic concentrations against cells for an additional period of 24 h. MTT assay was then performed to determine the % of cell viability.
(§3) The ability to prevent the human neuroblastoma cell line SH-SY5Y cell death induced by toxic insults such as Αβ 1–40, implicated in ROS production and apoptosis-related signalling pathways, and oligomycin/rotenone (O/R)[39], was then assayed to determine the neuroprotective capacity of the four less hepatotoxic KTs 2b–d and 2f at nontoxic concentration against SH-SY5Y 3 and 10 µM, using melatonin and KA as reference molecules. For the evaluation of the neuroprotective effect, the cytotoxicity of O/R (10 µM/30 µM) on SH-SY5Y cell viability was determined as well as the toxicity of the selected KTs 2b–d and 2f at.

A short description of experiment [3]: Oxygen radical absorbance capacity assay (ORAC-FL). The following applies: ORAC-FL, Trolox equivalents. How it is done:
The antioxidant activity of KTs was determined using the ORAC-FL method described by Dávalos et al.[30] using fluorescein as a fluorescent probe with minor modification. Briefly, fluorescein and antioxidant were incubated in a black 96-well microplate (Nunc) for 15 min at 37 °C. The 2,2’-azobis(amidinopropane) dihydrochloride (AAPH) was then added quickly using the built-in injector of Varioskan Flash plate reader (Thermo Scientific).
Results are expressed in the Trolox equivalents (TE) unit in relation to radical scavenging properties of Trolox.

The subject of experiment [4] is SH-SY5Y cells. Put plainly: Neuroprotection against Aβ1–40 peptide-induced cell death (MTT). In kind it is cell-based, human. As to conditions: compound 1 µM; Aβ 1–40 30 µM.
Experiment [5] deals with SH-SY5Y cells. Put plainly: Neuroprotection against oligomycin/rotenone-induced cell death (MTT). In kind it is cell-based, human. As to conditions: compound 3 µM; O 10 µM / R 30 µM. How it is done:
as §1, §2, §3

Consider `O=c1cc(CO)occ1O` [KA, kojic acid, reference compound], for which the “O/R (%) neuroprotection” value in the experiment with SH-SY5Y cells [1] and with SH-SY5Y cells [5] was “np” throughout. Besides, the “Aβ1–40 (%) neuroprotection” value in the experiment with SH-SY5Y cells [2] is listed as 65.11 ± 0.20 %; in the experiment on SH-SY5Y cells [4], 51.56 ± 0.18 %. The ORAC in experiment [3] is 2.51 TE and 2.51 ± 0.17 TE.
